Assay results: patent publication US11708422B2, “Mitigation of lung injury” (The Trustees Of The University Of Pennsylvania, priority 2016, dated 2023)
“Also recorded” adds a separate entry of the source.

Tests used:
RAEC monolayers [1] = test: Stretch-associated permeability of RAEC monolayers (cyclic stretch); assay type: cell-based, rat; conditions: 10 min of stretch; for stretch-associated permeability: pretreated, vs vehicle controls
Protocol: As evidence that NRG1, HER2, and HER3 regulate stretch-associated increases in permeability, RAEC monolayers (N≥3-7/group) were exposed to 10 min of stretch, and compared vehicle controls (VC, black bars, FIG. 16—Appendix I) with those pretreated microRNA miR15-b to reduce NRG1 expression (FIG. 7, APPROACH—Appendix I), TAPI2 to inhibit ADAM17 and NRG1 cleavage (diagonal striped bars, FIG. 16—Appendix I), HER3 mAb to inhibit NRG1 binding (dark gray bars), or AG825 (white bars) to inhibit HER2 activation.
each outcome measure, at each timepoint), at 0, 25, 37% ASA. To assess the effects of a longer stretch duration, RAEC monolayers from additional isolations (n=7 rats) were also subjected to cyclic stretch ASA of 0% (control) or 25% for 6 hrs. […] In RAECs, results were compared to stretched and unstretched monolayers with separate treatments to evaluate downstream signaling pathway inhibition of ERK (U0126), PI3K (Wortmannin), Rac1 (EHT-1864 and ERK 1/2 siRNA [97] and LIMK1 (BMS4). Additional groups had NRG1 expression decreased by overexpressing miRNA-15b (negative regulator of NRG1), using scrambled oligonucleotide as a negative control. As a validation of or hierarchical platform, TJ expression, phosphorylation and arrangement results in PCLS were compared with RAECs. In all groups, monolayers were assigned to one of four quantitative outcome evaluations: alveolar paracellular permeability via BODIPY-oubain and streptavidin-FITC methods (see INNOVATION—Appendix I), TJ and actin arrangement by fixing RAECs and PCLSs for qualitative immunofluorescence, total and phosphorylated TJ content via Western blot, or ZO-1-bound TJ proteins by isolating protein for co-IP using ZO-1 as bait, followed by Western blotting for occludin, claudins 4, 7, and 18, and F-actin in the ZO-1 protein fraction.

RAEC monolayers [2] = test: TJ protein dissociation from ZO-1 (co-IP with ZO-1 as bait) in stretched RAEC monolayers; assay type: cell-based, rat; conditions: RAECs, 10 min of cyclic stretch
Text: In the extracellular domain, the TJ is composed of claudins and occludin bound to TJ proteins of neighboring cells. In the intracellular domain, the claudins and occludin bind to actin via ZO-1. […] The present study tests the hypothesis that TJ dissociation between the ZO1 and the claudins and occludin is the primary causal mechanism for HER2-HER3 mediated barrier disruption. As preliminary evidence, RAEC monolayers (N=4) that were pretreated with NRG1 cleavage inhibitor TAPI-2, HER2 inhibitor AG825, or vehicle (VC) were stretched. […] The present study also confirmed stretch-induced TJ protein dissociation in lung slices.
each outcome measure, at each timepoint), at 0, 25, 37% ASA. To assess the effects of a longer stretch duration, RAEC monolayers from additional isolations (n=7 rats) were also subjected to cyclic stretch ASA of 0% (control) or 25% for 6 hrs. For every isolation, functional relationships will be confirmed in unstretched and stretched control groups treated with AG825 (HER2 inhibitor), anti-HER3ab (HER3 inhibitor), and tempol or tiron (superoxide scavenger), and compared with unstretched RAEC and PCLS treated with PMA to activate HER3 via NRG1 shedding as a positive control. In RAECs, results were compared to stretched and unstretched monolayers with separate treatments to evaluate downstream signaling pathway inhibition of ERK (U0126), PI3K (Wortmannin), Rac1 (EHT-1864 and ERK 1/2 siRNA [97] and LIMK1 (BMS4). Additional groups had NRG1 expression decreased by overexpressing miRNA-15b (negative regulator of NRG1), using scrambled oligonucleotide as a negative control. As a validation of or hierarchical platform, TJ expression, phosphorylation and arrangement results in PCLS were compared with RAECs. In all groups, monolayers were assigned to one of four quantitative outcome evaluations: alveolar paracellular permeability via BODIPY-oubain and streptavidin-FITC methods (see INNOVATION—Appendix I), TJ and actin arrangement by fixing RAECs and PCLSs for qualitative immunofluorescence, total and phosphorylated TJ content via Western blot, or ZO-1-bound TJ proteins by isolating protein for co-IP using ZO-1 as bait, followed by Western blotting for occludin, claudins 4, 7, and 18, and F-actin in the ZO-1 protein fraction.

rodent model of VILI = test: In vivo rodent model of VILI (large tidal volume mechanical ventilation); set-up: species or system rat; conditions: rats, Vt=25 ml/kg for 4 hrs, PEEP=0, AG825 1.67 mg/kg/day IP, 3 days
Protocol: Ventilated rats received one of […] treatments, intratracheal TAPI2 (used in vivo to inhibit NRG1 sheddase ADAM17) or […] AG825 or intravenous trastuzumab (to inhibit HER2), or will serve as ventilated vehicle-treated controls. Treatment windows were varied from 3 days prior ventilation to concurrent application, to identify an optimal, clinically-relevant therapeutic dose and timing. Dynamic compliance will be measured every 30 min. All animals were injected with FITC-albumin prior to ventilation, and alveolar permeability assessed prior to sacrifice by quantifying fluorescence of bronchoalveolar lavage (BAL) fluid normalized to serum fluorescence. Lungs were formalin-fixed after BAL, and hematoxylin/eosin stained sections were evaluated for hyaline membrane formation, interstitial edema, margination and infiltration of neutrophils, as well as intra-alveolar and perivascular hemorrhage. Compliance, permeability, and lung histology were compared across groups.

[3] = system: mice treated with bleomycin to induce lung injury; conditions: relative to untreated mice; cited from earlier work

For `COc1cc(/C=C(\C#N)C(N)=O)cc(CSc2nc3ccccc3s2)c1O` [AG825], the “barrier properties vs. unstretched VC” value (RAEC monolayers [1]) was “maintained barrier properties at unstretched levels”, the stretch-associated permeability (RAEC monolayers [1]) was “significantly reduced stretch-associated permeability” and the “TJ dissociation with stretch” value (RAEC monolayers [2]) was “reduces stretch-induced tight junction dissociation; also recorded: prevented”. The “levels of TJ bound to ZO-1 after stretch vs unstretched controls” value (RAEC monolayers [2]) was “equal or greater after stretch than unstretched controls”, the “protection against VILI” value (rodent model of VILI) was “dramatically protects against VILI” and the lung compliance (rodent model of VILI; 1.67 mg/kg/day) was “preserves lung compliance; also recorded: significant improvements in lung compliance”. The “permeability (barrier properties) in vivo” value (rodent model of VILI; 1.67 mg/kg/day) was “preserves barrier properties/moderates unwanted permeability; also recorded: significant improvements in lung compliance and permeability”.

For `CC(C)C[C@H](CC(=O)NO)C(=O)N[C@H](C(=O)N[C@@H](C)C(=O)NCCN)C(C)(C)C` [TAPI2], the stretch-associated permeability (RAEC monolayers [1]) was “significantly reduced stretch-associated permeability”, the “TJ dissociation with stretch” value (RAEC monolayers [2]) was “reduces stretch-induced tight junction dissociation; also recorded: prevented” and the “levels of TJ bound to ZO-1 after stretch vs unstretched controls” value (RAEC monolayers [2]) was “equal or greater after stretch than unstretched controls”. For the same compound, the alveolar protein content [3] was “decreased alveolar protein content”.
